Columns and labels:
Assay in all cases: kinobeads assay with mass spectrometry detection of kinases (kinase selectivity profile)
Assay type in all cases: binding
kinases (kinome) [1] = target: T1, kinases (kinome) (Homo sapiens, UniProt Q07912); conditions: ACK (TK), IPI00552750
T1 construct: determined in kinobeads assays with mass spectrometry detection of kinases as described previously; endogenous in cells; host or cells: cell lysate
Excerpt: (§1) The protein kinase complement of the human genome (the kinome) was described previously (Manning et al., 2002. Science 298(5600):1912-1934). Sequence accession numbers are defined by the International Protein Index (IPI) (Kersey et al., 2004. Proteomics 4(7):1985-1988).

kinases (kinome) [2] = target: T2, kinases (kinome) (Homo sapiens, UniProt Q9NSY1); conditions: BIKE (Other), IPI00337426
T2 construct: determined in kinobeads assays with mass spectrometry detection of kinases as described previously; endogenous in cells; host or cells: cell lysate
Excerpt: as §1

kinases (kinome) [3] = target: T3, kinases (kinome) (Homo sapiens, UniProt P42356); conditions: PIK4Ca (Lipid Kinase), IPI00070943
T3 construct: determined in kinobeads assays with mass spectrometry detection of kinases as described previously; endogenous in cells; host or cells: cell lysate
Excerpt: as §1

kinases (kinome) [4] = target: T4, kinases (kinome) (Homo sapiens, UniProt O14965); conditions: AurA (Other), IPI00298940
T4 construct: determined in kinobeads assays with mass spectrometry detection of kinases as described previously; endogenous in cells; host or cells: cell lysate
T4 sequence (O14965 1-403): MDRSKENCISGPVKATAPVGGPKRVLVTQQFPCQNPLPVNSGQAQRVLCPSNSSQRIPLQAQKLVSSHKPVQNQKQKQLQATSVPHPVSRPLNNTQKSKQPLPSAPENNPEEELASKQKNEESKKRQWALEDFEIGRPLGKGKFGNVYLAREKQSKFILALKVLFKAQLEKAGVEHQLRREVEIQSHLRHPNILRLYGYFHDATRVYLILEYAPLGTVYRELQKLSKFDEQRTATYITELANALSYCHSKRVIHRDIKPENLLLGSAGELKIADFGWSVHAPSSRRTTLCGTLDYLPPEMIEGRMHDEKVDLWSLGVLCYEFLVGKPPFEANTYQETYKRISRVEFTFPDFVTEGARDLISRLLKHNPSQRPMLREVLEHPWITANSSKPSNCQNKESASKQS
Excerpt: as §1

kinases (kinome) [5] = target: T5, kinases (kinome) (Homo sapiens, UniProt P51955); conditions: NEK2 (Other), IPI00021331
T5 construct: determined in kinobeads assays with mass spectrometry detection of kinases as described previously; endogenous in cells; host or cells: cell lysate
T5 sequence (P51955 1-445): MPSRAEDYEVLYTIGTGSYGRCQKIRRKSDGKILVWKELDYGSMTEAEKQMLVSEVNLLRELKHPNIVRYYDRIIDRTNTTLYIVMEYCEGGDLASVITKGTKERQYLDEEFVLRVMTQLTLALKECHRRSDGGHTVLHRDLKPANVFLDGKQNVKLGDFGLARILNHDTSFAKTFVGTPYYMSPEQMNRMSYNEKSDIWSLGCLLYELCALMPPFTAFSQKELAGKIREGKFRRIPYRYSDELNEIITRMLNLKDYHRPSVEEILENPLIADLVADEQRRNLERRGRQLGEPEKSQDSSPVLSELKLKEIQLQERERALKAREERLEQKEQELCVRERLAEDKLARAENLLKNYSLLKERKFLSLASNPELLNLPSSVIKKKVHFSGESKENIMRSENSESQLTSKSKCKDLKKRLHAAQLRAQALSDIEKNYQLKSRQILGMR
Excerpt: as §1

kinases (kinome) [6] = target: T6, kinases (kinome) (Homo sapiens, UniProt Q14289); conditions: PYK2 (TK), IPI00029702
T6 construct: determined in kinobeads assays with mass spectrometry detection of kinases as described previously; endogenous in cells; host or cells: cell lysate
Excerpt: as §1

kinases (kinome) [7] = target: T7, kinases (kinome) (Homo sapiens, UniProt Q8NI60); conditions: ADCK3 (Atypical), IPI00176469
T7 construct: determined in kinobeads assays with mass spectrometry detection of kinases as described previously; endogenous in cells; host or cells: cell lysate
Excerpt: as §1

kinases (kinome) [8] = target: T8, kinases (kinome) (Homo sapiens, UniProt P24941); conditions: CDK2 (CMGC), IPI00031681
T8 construct: determined in kinobeads assays with mass spectrometry detection of kinases as described previously; endogenous in cells; host or cells: cell lysate
Excerpt: as §1

kinases (kinome) [9] = target: T9, kinases (kinome) (Homo sapiens, UniProt P07948); conditions: LYN (TK), IPI00298625
T9 construct: determined in kinobeads assays with mass spectrometry detection of kinases as described previously; endogenous in cells; host or cells: cell lysate
Excerpt: as §1

kinases (kinome) [10] = target: T10, kinases (kinome) (Homo sapiens, UniProt P06241); conditions: FYN (TK), IPI00219012
T10 construct: determined in kinobeads assays with mass spectrometry detection of kinases as described previously; endogenous in cells; host or cells: cell lysate
Excerpt: as §1

kinases (kinome) [11] = target: T11, kinases (kinome) (Homo sapiens, UniProt Q7KZI7); conditions: MARK2 (CAMK), IPI00555838
T11 construct: determined in kinobeads assays with mass spectrometry detection of kinases as described previously; endogenous in cells; host or cells: cell lysate
Excerpt: as §1

kinases (kinome) [12] = target: T12, kinases (kinome) (Homo sapiens, UniProt Q14164); conditions: IKKe (Other), IPI00029045
T12 construct: determined in kinobeads assays with mass spectrometry detection of kinases as described previously; endogenous in cells; host or cells: cell lysate
T12 sequence (Q14164 1-716): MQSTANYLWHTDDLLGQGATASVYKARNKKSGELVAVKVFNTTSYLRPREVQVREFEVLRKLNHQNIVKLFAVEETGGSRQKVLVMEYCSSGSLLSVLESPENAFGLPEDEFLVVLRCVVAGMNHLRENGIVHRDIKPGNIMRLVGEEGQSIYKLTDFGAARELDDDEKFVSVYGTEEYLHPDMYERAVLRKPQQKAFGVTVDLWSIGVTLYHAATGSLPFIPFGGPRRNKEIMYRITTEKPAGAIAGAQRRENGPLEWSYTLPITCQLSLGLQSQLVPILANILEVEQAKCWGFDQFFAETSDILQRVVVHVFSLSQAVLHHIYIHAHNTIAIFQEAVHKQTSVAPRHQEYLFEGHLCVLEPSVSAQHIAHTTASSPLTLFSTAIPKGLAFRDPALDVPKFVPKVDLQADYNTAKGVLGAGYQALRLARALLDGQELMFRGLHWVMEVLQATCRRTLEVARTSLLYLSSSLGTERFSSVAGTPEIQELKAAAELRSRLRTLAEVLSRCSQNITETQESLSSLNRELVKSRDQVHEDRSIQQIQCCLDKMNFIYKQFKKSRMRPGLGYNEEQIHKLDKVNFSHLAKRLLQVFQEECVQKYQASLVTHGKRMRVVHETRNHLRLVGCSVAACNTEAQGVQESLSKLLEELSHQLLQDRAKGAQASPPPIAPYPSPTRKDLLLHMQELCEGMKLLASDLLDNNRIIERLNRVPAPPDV
Excerpt: as §1

kinases (kinome) [13] = target: T13, kinases (kinome) (Homo sapiens, UniProt P30291); conditions: Wee1 (Other), IPI00025830
T13 construct: determined in kinobeads assays with mass spectrometry detection of kinases as described previously; endogenous in cells; host or cells: cell lysate
Excerpt: as §1

T6 sequence (Q14289 whole entry): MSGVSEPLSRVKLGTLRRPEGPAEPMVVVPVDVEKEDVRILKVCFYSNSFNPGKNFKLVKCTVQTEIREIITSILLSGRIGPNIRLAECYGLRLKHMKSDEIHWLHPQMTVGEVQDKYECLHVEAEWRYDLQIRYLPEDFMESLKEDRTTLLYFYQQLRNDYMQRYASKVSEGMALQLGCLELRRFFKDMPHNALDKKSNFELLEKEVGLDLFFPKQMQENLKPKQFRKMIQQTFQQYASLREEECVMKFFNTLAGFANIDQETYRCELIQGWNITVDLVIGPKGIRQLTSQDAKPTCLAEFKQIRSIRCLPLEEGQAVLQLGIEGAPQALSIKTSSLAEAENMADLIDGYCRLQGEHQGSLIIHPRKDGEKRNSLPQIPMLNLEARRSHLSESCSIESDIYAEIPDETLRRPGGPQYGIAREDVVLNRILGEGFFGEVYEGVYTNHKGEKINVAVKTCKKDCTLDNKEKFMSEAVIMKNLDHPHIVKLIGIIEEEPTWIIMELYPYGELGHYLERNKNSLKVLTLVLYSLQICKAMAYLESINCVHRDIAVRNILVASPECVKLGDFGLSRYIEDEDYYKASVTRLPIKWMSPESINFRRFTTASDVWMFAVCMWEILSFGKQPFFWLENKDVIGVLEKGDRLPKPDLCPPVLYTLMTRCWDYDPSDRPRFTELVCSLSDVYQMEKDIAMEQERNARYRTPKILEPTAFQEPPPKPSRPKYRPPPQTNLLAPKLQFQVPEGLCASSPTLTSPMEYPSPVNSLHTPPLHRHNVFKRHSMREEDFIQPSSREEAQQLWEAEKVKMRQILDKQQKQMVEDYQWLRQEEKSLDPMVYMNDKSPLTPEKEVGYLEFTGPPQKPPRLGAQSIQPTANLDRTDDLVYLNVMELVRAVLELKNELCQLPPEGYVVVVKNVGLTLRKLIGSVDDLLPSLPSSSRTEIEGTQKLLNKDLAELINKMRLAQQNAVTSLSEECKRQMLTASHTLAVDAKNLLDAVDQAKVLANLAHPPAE
T7 sequence (Q8NI60 163-647): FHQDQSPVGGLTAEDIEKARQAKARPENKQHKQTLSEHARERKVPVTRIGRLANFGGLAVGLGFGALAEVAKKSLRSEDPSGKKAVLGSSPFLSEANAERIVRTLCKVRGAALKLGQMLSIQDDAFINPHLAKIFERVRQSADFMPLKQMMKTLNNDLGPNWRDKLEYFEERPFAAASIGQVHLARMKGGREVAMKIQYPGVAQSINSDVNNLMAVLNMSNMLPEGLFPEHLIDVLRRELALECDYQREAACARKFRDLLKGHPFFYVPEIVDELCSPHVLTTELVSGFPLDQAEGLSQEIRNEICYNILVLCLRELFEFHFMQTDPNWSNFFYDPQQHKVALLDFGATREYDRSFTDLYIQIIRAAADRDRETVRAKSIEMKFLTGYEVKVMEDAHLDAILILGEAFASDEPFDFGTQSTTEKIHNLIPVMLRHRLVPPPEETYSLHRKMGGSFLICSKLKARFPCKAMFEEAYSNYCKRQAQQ
T11 sequence (Q7KZI7 whole entry): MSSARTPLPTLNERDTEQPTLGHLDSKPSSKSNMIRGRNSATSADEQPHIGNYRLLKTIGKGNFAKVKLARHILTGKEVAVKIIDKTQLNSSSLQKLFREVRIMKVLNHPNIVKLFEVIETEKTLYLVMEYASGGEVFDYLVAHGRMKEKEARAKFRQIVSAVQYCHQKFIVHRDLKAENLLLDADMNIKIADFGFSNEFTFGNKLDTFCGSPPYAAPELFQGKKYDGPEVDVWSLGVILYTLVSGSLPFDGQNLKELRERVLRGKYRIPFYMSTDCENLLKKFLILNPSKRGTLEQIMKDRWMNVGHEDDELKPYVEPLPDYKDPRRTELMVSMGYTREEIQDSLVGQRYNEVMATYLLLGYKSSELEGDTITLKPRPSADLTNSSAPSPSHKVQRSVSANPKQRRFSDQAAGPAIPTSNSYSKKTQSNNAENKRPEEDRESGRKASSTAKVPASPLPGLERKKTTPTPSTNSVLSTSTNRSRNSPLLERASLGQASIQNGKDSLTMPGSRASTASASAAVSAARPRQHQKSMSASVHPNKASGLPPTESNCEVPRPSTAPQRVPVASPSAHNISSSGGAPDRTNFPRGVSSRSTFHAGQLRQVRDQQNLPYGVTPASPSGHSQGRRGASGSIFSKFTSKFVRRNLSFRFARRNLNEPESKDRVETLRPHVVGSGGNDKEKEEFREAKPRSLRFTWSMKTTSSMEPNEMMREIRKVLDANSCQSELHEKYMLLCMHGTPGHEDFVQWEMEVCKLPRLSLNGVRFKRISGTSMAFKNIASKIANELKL
T1 sequence (Q07912 whole entry): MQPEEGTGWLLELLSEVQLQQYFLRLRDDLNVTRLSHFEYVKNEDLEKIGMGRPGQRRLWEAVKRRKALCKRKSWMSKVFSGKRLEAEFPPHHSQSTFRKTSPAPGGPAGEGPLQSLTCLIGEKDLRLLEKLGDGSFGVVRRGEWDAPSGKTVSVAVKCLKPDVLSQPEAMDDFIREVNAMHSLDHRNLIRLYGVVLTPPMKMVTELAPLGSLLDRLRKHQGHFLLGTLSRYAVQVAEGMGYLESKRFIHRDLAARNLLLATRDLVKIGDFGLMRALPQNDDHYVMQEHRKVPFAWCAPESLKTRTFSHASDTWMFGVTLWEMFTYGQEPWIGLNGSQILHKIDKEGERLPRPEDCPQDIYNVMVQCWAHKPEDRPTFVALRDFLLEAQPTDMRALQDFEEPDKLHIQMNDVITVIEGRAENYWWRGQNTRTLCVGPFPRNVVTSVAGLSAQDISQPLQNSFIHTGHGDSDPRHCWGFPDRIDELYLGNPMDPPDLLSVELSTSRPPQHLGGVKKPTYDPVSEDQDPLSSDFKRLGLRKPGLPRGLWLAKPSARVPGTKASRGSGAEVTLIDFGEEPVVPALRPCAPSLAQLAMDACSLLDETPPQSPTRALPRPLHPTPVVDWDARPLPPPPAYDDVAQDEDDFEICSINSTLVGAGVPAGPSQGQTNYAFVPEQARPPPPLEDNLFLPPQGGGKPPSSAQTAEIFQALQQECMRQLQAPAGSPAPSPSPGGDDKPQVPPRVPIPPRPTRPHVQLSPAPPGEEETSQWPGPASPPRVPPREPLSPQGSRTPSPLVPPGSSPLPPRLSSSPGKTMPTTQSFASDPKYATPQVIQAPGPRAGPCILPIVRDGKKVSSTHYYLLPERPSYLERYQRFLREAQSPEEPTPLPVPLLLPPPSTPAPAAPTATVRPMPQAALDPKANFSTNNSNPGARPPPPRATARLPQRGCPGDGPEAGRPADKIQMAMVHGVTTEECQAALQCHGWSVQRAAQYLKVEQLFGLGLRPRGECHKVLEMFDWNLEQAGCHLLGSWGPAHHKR
T13 sequence (P30291 whole entry): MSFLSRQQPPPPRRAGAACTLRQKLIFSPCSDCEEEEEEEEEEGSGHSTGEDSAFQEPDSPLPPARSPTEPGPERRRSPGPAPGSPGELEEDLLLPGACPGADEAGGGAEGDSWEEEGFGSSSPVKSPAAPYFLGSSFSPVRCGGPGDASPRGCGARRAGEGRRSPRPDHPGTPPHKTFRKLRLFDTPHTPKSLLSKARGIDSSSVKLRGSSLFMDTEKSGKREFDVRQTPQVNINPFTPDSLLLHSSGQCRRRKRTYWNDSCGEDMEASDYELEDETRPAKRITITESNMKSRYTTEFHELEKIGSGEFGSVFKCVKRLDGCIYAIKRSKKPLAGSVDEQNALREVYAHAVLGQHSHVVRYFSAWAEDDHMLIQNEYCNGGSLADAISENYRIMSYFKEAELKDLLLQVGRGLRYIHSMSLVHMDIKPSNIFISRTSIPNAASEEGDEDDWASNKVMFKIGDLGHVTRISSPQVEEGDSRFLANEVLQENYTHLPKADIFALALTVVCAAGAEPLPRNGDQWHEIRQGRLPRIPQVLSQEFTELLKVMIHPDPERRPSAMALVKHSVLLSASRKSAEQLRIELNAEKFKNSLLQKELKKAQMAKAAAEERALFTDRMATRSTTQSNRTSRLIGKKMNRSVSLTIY
T9 sequence (P07948 whole entry): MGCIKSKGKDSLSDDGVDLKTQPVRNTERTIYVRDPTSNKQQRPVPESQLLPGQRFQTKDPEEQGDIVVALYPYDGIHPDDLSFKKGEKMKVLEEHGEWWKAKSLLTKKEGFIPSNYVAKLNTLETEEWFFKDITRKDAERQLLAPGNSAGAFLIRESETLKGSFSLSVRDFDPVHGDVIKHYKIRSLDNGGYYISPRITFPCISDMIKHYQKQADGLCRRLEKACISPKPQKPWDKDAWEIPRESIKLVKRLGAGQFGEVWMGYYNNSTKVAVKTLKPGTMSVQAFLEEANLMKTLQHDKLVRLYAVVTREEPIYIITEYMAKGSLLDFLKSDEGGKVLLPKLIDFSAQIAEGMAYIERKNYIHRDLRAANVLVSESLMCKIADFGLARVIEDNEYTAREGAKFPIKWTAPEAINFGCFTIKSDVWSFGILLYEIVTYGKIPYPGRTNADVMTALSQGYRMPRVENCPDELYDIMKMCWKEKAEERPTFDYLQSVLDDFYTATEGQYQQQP
T10 sequence (P06241 whole entry): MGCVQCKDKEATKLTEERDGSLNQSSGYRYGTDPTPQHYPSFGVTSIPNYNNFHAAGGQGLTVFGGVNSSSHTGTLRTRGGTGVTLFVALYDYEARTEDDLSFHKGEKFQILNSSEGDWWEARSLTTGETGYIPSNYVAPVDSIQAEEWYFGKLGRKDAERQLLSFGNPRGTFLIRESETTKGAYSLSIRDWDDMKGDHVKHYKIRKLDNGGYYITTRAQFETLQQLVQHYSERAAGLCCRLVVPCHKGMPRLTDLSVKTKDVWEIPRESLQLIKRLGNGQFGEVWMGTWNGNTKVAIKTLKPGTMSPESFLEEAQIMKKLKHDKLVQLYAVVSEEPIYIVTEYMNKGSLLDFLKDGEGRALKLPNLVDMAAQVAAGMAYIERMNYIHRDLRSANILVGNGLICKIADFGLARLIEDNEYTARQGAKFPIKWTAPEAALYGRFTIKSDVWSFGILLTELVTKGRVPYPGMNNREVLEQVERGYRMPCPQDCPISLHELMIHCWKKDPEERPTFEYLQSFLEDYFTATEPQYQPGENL

| Compound | IC50 (kinases (kinome) [1]) | IC50 (kinases (kinome) [2]) | IC50 (kinases (kinome) [3]) | IC50 (kinases (kinome) [4]) | IC50 (kinases (kinome) [5]) | IC50 (kinases (kinome) [6]) | IC50 (kinases (kinome) [7]) | IC50 (kinases (kinome) [8]) | IC50 (kinases (kinome) [9]) | IC50 (kinases (kinome) [10]) | IC50 (kinases (kinome) [11]) | IC50 (kinases (kinome) [12]) | IC50 (kinases (kinome) [13]) |
| --- | --- | --- | --- | --- | --- | --- | --- | --- | --- | --- | --- | --- | --- |
| C[C@H]1COCCN1c1nc(-c2ccc(NC(=O)NC3CC3)cc2)cc(-c2cccnc2S(C)(=O)=O)n1 [Example 46, (S)-1-cyclopropyl-3-(4-(2-(3-methylmorpholino)-6-(2-(methylsulfonyl)pyridin-3-yl)pyrimidin-4-yl)phenyl)urea] | > 10 µM | > 10 µM | > 10 µM | > 10 µM | > 10 µM | > 10 µM | > 10 µM | > 10 µM | > 10 µM | > 10 µM | > 10 µM | > 10 µM | > 10 µM |
| C[C@H]1COCCN1c1nc(-c2ccc(NC(=O)N[C@H]3CCC[C@@H]3O)cc2)cc(-c2cc(F)ccc2S(C)(=O)=O)n1 [Example 76, 1-(4-(6-(5-fluoro-2-(methylsulfonyl)phenyl)-2-((S)-3-methylmorpholino)pyrimidin-4-yl)phenyl)-3-((1S,2S)-2-hydroxycyclopentyl)urea] | > 10 µM | > 10 µM | > 10 µM | > 10 µM | > 10 µM | > 10 µM | > 10 µM | > 10 µM | > 10 µM | > 10 µM | > 10 µM | > 10 µM | > 10 µM |
| C[C@H]1COCCN1c1cc(-c2ccccn2)nc(-c2ccc(NC(=O)NCCO)cc2)n1 [Example 43, (S)-1-(2-hydroxyethyl)-3-(4-(4-(3-methylmorpholino)-6-(pyridin-2-yl)pyrimidin-2-yl)phenyl)urea] | > 10 µM | > 10 µM | > 10 µM | > 10 µM | > 10 µM | > 10 µM | > 10 µM | > 10 µM | > 10 µM | > 10 µM | > 10 µM | > 10 µM | > 10 µM |
| C[C@H]1COCCN1c1nc(-c2ccc(NC(=O)NC3CC3)cc2)cc(-c2ccccc2S(C)(=O)=O)n1 [Example 4, (S)-1-cyclopropyl-3-(4-(2-(3-methylmorpholino)-6-(2-(methylsulfonyl)phenyl)pyrimidin-4-yl)phenyl)urea] | > 10 µM | > 10 µM | > 10 µM | > 10 µM | > 10 µM | > 10 µM | > 10 µM | > 10 µM | > 10 µM | > 10 µM | > 10 µM | > 10 µM | > 10 µM |

Second part, the compound after the results:

| IC50 (kinases (kinome) [1]) | IC50 (kinases (kinome) [2]) | IC50 (kinases (kinome) [3]) | IC50 (kinases (kinome) [4]) | IC50 (kinases (kinome) [5]) | IC50 (kinases (kinome) [6]) | IC50 (kinases (kinome) [7]) | IC50 (kinases (kinome) [8]) | IC50 (kinases (kinome) [9]) | IC50 (kinases (kinome) [10]) | IC50 (kinases (kinome) [11]) | IC50 (kinases (kinome) [12]) | IC50 (kinases (kinome) [13]) | Compound |
| --- | --- | --- | --- | --- | --- | --- | --- | --- | --- | --- | --- | --- | --- |
| > 10 µM | > 10 µM | > 10 µM | > 10 µM | > 10 µM | > 10 µM | > 10 µM | > 10 µM | > 10 µM | > 10 µM | > 10 µM | > 10 µM | > 10 µM | C[C@H]1COCCN1c1nc(-c2ccc(NC(=O)NC3CC3)cc2)cc(-c2cc(F)ccc2S(C)(=O)=O)n1 [Example 40, (S)-1-cyclopropyl-3-(4-(6-(5-fluoro-2-(methylsulfonyl)phenyl)-2-(3-methylmorpholino)pyrimidin-4-yl)phenyl)urea] |
| > 10 µM | > 10 µM | > 10 µM | > 10 µM | > 10 µM | > 10 µM | > 10 µM | > 10 µM | > 10 µM | > 10 µM | > 10 µM | > 10 µM | > 10 µM | C[C@H]1COCCN1c1cc(-c2ccccc2S(C)(=O)=O)nc(-c2ccc(NC(=O)NC3CC3)cc2)n1 [Example 6, (S)-1-cyclopropyl-3-(4-(4-(3-methylmorpholino)-6-(2-(methylsulfonyl)phenyl)pyrimidin-2-yl)phenyl)urea] |
| > 10 µM | > 10 µM | > 10 µM | > 10 µM | > 10 µM | > 10 µM | > 10 µM | > 10 µM | > 10 µM | > 10 µM | > 10 µM | > 10 µM | > 10 µM | CCNC(=O)Nc1ccc(-c2cc(-c3ccccc3C#N)nc(N3CCOC[C@@H]3C)n2)cc1 [Example 8, (S)-1-(4-(6-(2-cyanophenyl)-2-(3-methylmorpholino)pyrimidin-4-yl)phenyl)-3-ethylurea] |
